Structures can show the parent of a compound that is named as a salt.
Key:
[1] = test system: human keratinocytes cell line NCTC2544; experiment: MTT assay with induced oxidative stress (1 mM H2O2); assay type: cell-based; conditions: NCTC-2544, 0.5 μM compound, 16 h pre-treatment, then 1 mM H2O2 for 90 minutes, read-out: % viability (cell viability compared to not stressed control cells)
Source text: In the intracellular environment, said formazan forms insoluble crystals to which the membranes are substantially impermeable: the molecule is therefore allowed to entry the cell, but not to exit it, if the molecule is correctly metabolized, i.e. if the electron transport chains are still metabolically active (that is equipped with an active reducing power).
This assay measures the viability of cells subjected to oxidative stress, and is therefore interpreted not only as an indicator of the antioxidant activity but also as an indicator of protection from oxidative stress and enhancement of cellular antioxidant defenses, in general terms being the test non-specific.
With the transformation of MTT, a change in color of the molecule from yellow to dark blue-violet is seen; therefore, to estimate the number of active mitochondria and, therefore, the number of viable cells in the sample, a colorimetric assay with a spectrophotometer read-out is used.
The protocol described below is used as a screening tool for the activity of the compounds of the invention object of the study, after induction of oxidative stress in the human keratinocytes cell line NCTC2544 through application of 1 mM hydrogen peroxide, according to a specific bibliographic reference (Rajapakse et al., 2004). The assay was conducted according to the method described by Coda and collaborators, with some modifications
The NCTC 2544 human keratinocytes were seeded in a 96-well plate at a density of 5*10^4 cells/well and incubated at 37° C. and 5% CO2, until reaching approximately 80% confluence.
The cells were then pretreated for 16 hours with the compounds of the invention to be tested in different concentrations, and with α-tocopherol, tested at the […] and 1 mM concentrations, as a reference. Cells treated with 1 mM H2O2 were used as negative control; however, cells maintained in culture in complete medium, served as the positive control.
At the end of the 16 hours of pre-treatment, the cells were washed with 1×PBS and incubated for 90 minutes with a 1 mM H2O2 solution (Sigma-Aldrich, St. Louis, Mo., USA) in serum-free medium at 37° C. and 5% CO2, in the dark.
Once the oxidative stress induction phase was completed, the evaluation of cell viability of the various samples was carried out, according to the method previously described (MTT assay).
The data were expressed as the percentage of cell viability compared to not stressed control cells (ctr), according to the following formula: % cell viability/ctr=(Abs sample/Abs ctr)*100
All analyzes were performed at least twice in duplicate.

[2] = test system: TNF-α gene expression in NCTC 2544 human keratinocytes; experiment: In vitro inflammation test: LPS-induced TNF-α gene expression by qRT-PCR; assay type: cell-based; conditions: 5 μM compound, LPS 5 μg/ml, 24 h, NCTC 2544 keratinocytes
Method: A immortalized line of NCTC 2544 human keratinocytes (Perry V. P. et al., 1957), kept in culture in sterile flasks ([…]), incubated at 37° C. in a humid atmosphere with 5% CO2 in MEM (Minimum Essential Medium) culture medium added with 10% fetal bovine serum (FBS), 2 mM glutamine, 1% non-essential amino acids, in the presence of 1% of penicillin and streptomycin, is used.
When the cells (NCTC 2544 human keratinocytes) reached approximately 80% confluence, they were detached with trypsin/EDTA and seeded at a density of 1×10^6 cells/ml in 12-well plates, and then incubated at 37° C., 5% CO2 (24 h). […]
The activity of the compounds under study on TNF-α gene expression was assessed by relative quantitative RT-PCR (quantitative reverse transcription-polymerase chain reaction-qRT-PCR). […]
With the use of a spectrophotometer (Jenway UV/VIS MOD: 6715, BS-6715B0), the μg/mL concentrations of the total RNA extracted were calculated, at a wavelength of 260 nm.
Finally, the RNA integrity (2 μg/mL) was evaluated by means of an electrophoretic run on 1% agarose gel.
The RNA extracted and quantified was diluted at a concentration of 2 μg/mL and reverse-transcribed into cDNA. […]

Row | Structure (SMILES) | viability at 0.5 µM [1] | anti-inflammatory activity (TNF-α assay, FIG. 2) [2]
1 | C/C=C/C=C/C=C/C(=O)Oc1cc(/C=C/c2ccc(O)cc2)cc(OC(=O)/C=C/C=C/C=C/C)c1 [resveratrol di-octatrienoate, Resveratrol 3,5-di-octatrienoate] | 120% | –
2 | Oc1ccc(C=Cc2cc(O)cc(O)c2)cc1 [resveratrol] | ~75% | proves not to have
3 | C/C=C/C=C/C=C/C(=O)O [octatrienoic acid arginine salt, Octatrienoic acid arginine salt] | 91.5% | –
4 | CC=CC=CC=CC(=O)O [octatrienoic acid, 2,4,6-octatrienoic acid] | ~75% | –
